In ChEMBL document CHEMBL1131225, “Macrocyclic amino carboxylates as selective MMP-8 inhibitors” (J Med Chem, 1998):
pKi: −log10 of the molar value.

What was measured:
Stromelysin-1 = Stromelysin-1 (Homo sapiens, UniProt P08254); assay: Inhibition of Matrix metalloprotease-3
Neutrophil collagenase = Neutrophil collagenase (Homo sapiens, UniProt P22894); assay: Inhibition of Matrix metalloprotease-8
[1] = target: 72 kDa type IV collagenase (Homo sapiens, UniProt P08253); assay: Inhibition of Matrix metalloprotease-2
Sequence of 72 kDa type IV collagenase (P08253 whole entry): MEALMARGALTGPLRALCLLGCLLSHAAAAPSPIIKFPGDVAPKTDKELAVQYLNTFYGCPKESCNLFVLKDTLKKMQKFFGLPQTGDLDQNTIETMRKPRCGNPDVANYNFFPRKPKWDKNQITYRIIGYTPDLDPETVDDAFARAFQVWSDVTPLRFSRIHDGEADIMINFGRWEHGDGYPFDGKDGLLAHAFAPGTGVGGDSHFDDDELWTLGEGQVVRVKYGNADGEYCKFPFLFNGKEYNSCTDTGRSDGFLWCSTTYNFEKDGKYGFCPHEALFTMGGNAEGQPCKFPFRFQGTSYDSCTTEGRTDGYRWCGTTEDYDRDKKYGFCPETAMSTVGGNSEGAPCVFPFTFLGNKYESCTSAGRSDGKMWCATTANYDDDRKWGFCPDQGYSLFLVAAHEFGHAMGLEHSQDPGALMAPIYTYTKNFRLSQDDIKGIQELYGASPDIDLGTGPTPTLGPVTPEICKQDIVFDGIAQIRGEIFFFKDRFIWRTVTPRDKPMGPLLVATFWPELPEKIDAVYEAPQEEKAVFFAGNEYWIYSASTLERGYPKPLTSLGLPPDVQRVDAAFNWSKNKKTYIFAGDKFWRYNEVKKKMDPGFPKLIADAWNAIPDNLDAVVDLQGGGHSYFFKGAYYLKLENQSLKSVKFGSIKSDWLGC

Interstitial collagenase = target: T1, Interstitial collagenase (Homo sapiens, UniProt P03956); assay: Inhibition of Matrix metalloprotease-1
T1 sequence (P03956 whole entry): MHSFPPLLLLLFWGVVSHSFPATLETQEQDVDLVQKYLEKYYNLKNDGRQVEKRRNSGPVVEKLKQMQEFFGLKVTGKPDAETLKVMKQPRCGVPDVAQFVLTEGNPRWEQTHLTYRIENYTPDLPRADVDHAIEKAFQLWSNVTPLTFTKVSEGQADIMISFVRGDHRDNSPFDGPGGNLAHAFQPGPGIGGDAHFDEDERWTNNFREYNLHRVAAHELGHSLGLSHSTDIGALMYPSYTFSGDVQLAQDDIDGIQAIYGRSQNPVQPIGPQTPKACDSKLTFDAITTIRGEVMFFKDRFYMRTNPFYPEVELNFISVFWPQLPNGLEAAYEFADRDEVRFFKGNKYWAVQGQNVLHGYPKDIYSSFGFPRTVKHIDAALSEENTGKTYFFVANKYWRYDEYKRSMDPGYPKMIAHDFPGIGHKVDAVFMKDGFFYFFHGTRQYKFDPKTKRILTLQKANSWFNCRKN

[2] = target: Matrix metalloproteinase-9 (Homo sapiens, UniProt P14780); assay: Inhibition of Matrix metalloprotease-9
Sequence of Matrix metalloproteinase-9 (P14780 whole entry): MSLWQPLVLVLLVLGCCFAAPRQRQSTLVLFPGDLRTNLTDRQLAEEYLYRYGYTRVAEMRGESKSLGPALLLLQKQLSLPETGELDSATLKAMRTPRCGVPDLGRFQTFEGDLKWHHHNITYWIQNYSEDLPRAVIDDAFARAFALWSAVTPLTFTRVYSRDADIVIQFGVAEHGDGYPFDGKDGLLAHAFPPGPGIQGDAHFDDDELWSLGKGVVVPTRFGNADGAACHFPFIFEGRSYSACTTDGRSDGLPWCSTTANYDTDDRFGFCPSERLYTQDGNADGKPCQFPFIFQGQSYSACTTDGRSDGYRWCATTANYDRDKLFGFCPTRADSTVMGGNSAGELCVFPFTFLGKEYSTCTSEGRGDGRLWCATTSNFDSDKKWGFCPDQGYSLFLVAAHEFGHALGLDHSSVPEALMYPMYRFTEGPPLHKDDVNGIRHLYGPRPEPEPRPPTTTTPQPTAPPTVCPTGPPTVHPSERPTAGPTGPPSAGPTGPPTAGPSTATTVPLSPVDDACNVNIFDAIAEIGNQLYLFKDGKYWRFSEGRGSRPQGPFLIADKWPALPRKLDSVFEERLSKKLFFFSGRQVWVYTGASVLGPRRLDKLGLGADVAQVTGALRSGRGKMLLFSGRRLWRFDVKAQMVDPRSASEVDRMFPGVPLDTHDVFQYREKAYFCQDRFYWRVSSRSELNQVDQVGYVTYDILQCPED

Sequence of Stromelysin-1 (P08254 whole entry): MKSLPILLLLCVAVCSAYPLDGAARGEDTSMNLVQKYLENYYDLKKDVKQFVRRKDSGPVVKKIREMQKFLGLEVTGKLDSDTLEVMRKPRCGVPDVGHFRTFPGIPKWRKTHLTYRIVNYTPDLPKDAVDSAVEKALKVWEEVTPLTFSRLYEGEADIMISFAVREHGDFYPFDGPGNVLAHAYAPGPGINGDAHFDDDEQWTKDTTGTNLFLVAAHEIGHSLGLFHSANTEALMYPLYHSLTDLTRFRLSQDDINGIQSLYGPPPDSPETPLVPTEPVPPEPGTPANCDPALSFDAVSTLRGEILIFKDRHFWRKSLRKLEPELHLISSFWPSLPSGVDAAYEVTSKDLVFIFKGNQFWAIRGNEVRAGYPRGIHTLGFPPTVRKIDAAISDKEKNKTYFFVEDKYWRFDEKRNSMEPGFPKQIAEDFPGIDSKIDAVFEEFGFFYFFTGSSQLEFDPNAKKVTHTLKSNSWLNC
Sequence of Neutrophil collagenase (P22894 whole entry): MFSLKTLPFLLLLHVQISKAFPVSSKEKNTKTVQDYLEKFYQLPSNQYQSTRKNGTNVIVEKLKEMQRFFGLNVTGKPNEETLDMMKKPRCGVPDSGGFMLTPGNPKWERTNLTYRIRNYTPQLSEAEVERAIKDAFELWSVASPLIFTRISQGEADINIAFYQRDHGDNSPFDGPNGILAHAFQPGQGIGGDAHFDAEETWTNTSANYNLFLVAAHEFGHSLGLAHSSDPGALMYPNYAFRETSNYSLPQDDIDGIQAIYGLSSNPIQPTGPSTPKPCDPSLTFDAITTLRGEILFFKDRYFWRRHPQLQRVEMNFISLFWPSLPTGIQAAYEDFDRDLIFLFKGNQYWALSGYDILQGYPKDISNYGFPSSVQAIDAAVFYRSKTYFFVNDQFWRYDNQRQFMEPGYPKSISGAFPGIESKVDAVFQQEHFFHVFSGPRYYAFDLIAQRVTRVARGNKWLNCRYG

Row | SMILES | pKi (Stromelysin-1) | pKi (Neutrophil collagenase) | pKi [1] | pKi (Interstitial collagenase) | pKi [2]
1 | CNC(=O)[C@@H]1CCC(=O)OCCNC(=O)CC[C@H](C(=O)O)N[C@@H](CCc2ccccc2)C(=O)N1 | 5.54 | 8.00 | 6.62 | 5.08 | 5.24
2 | CNC(=O)[C@@H]1CCCCNC(=O)C[C@H](C(=O)O)N[C@@H](CCc2ccccc2)C(=O)N1 | 4.46 | 6.27 | 5.62 | 6.05 | 5.01
3 | CNC(=O)[C@@H]1CCCCNC(=O)CC[C@H](C(=O)O)N[C@@H](CCc2ccc(-c3ccccc3)cc2)C(=O)N1 | 5.62 | 8.05 | 6.60 | 5.84 | 6.54
4 | CNC(=O)CC[C@@H](N[C@@H](CCc1ccccc1)C(=O)N[C@@H](CCCCNC(C)=O)C(=O)NC)C(=O)O | 4.85 | 6.53 | 5.81 |  | 6.39
5 | CNC(=O)[C@@H]1CCCCNC(=O)CC[C@H](C(=O)O)N[C@@H](CCc2ccccc2)C(=O)N1 | 4.87 | 7.77 | 5.09 |  | 5.18
